Laboratory results published in US11076595B2, “1-(n,n-disubstituted carbamoyl) 4-(substituted sulfonyl)triazolin-5-one derivative, 4-(n,n-disubstituted carbamoyl) 1-(substituted sulfonyl)triazolin-5-one derivative, and herbicide containing said derivative as active ingredient” (HOKKO CHEMICAL INDUSTRY CO., LTD., priority 2017, dated 2021).

Legend:
Assay type in all cases: in vivo
Echinochloa crus-galli [1] = assay: Test Example 14: herbicidal effect test by foliage treatment in upland field; conditions: 7 days after sowing, 120 g/10a, 14 days after treatment
Summary of the method: (§1)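 Dry-weight read-out: suppression (%) = (1 − mean treated dry weight/mean untreated dry weight)×100, at 14 days post-spray, two replicate plots per concentration. Spray applied 7 days after sowing, 120 g a.i. per 10 are.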

Amaranthus viridis [2] = assay: as above; conditions: 7 days after sowing, 120 g/10a, 14 days after treatment
Summary of the method: as §1

Chenopodium album [3] = assay: as above; conditions: 7 days after sowing, 120 g/10a, 14 days after treatment
Summary of the method: as §1

crabgrass [4] = assay: as above; conditions: 7 days after sowing, 120 g/10a, 14 days after treatment
Summary of the method: as §1

Monochoria vaginalis [5] = assay: Test Example 11: herbicidal effect test by soil treatment in paddy field; conditions: 120 g/10a active ingredient, 14 days after treatment
Summary of the method: (§2)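 Dry weight at day 14 relative to untreated controls gives the suppression rate; duplicate pots. Treatment: 120 g a.i./10 are into paddy water at sowing.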

Echinochloa crus-galli [6] = assay: as above; conditions: 120 g/10a active ingredient, 14 days after treatment
Summary of the method: as §2

Lindernia pyxidaria [7] = assay: as above; conditions: 120 g/10a active ingredient, 14 days after treatment
Summary of the method: as §2

Scirpus juncoides [8] = assay: as above; conditions: 120 g/10a active ingredient, 14 days after treatment
Summary of the method: as §2

Echinochloa crus-galli [9] = assay: Test Example 13: herbicidal effect test by soil treatment in upland field; conditions: 120 g/10a, 14 days after treatment
Summary of the method: (§3)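 Soil-applied emulsifiable concentrate at 120 g active ingredient per 10 are, sprayed one day after seeding into alluvial soil pots. Dry-weight-based suppression scored at 14 days; two replications.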

Chenopodium album [10] = assay: as above; conditions: 120 g/10a, 14 days after treatment
Summary of the method: as §3

crabgrass [11] = assay: as above; conditions: 120 g/10a, 14 days after treatment
Summary of the method: as §3

Amaranthus viridis [12] = assay: as above; conditions: 120 g/10a, 14 days after treatment
Summary of the method: as §3

Monochoria vaginalis [13] = assay: Test Example 12: herbicidal effect test by treatment during growing period in paddy field; conditions: 120 g/10a; treatment seven days after sowing in flooded paddy pot; assessed 14 days after treatment
Summary of the method: (§4)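 Weed suppression (%) = (1 − treated/untreated mean dry weight) × 100, scored 14 days after treatment with two replicates per plot. Dose 120 g a.i. per 10 are, as diluted emulsifiable concentrate added dropwise to flooded pots (water about 3 cm) 7 days post-sowing, seeds at 0-1 cm.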

Echinochloa crus-galli [14] = assay: as above; conditions: 120 g/10a; treatment seven days after sowing in flooded paddy pot; assessed 14 days after treatment
Summary of the method: as §4

Lindernia pyxidaria [15] = assay: as above; conditions: 120 g/10a; treatment seven days after sowing in flooded paddy pot; assessed 14 days after treatment
Summary of the method: as §4

Scirpus juncoides [16] = assay: as above; conditions: 120 g/10a; treatment seven days after sowing in flooded paddy pot; assessed 14 days after treatment
Summary of the method: as §4

Structure (SMILES)	herbicidal effect, Echinochloa crus-galli (Echinochloa crus-galli [1])	herbicidal effect, Amaranthus viridis (Amaranthus viridis [2])	herbicidal effect, Chenopodium album (Chenopodium album [3])	herbicidal effect, Crabgrass (crabgrass [4])	Weed suppression rate (%) Monochoria vaginalis (Monochoria vaginalis [5])	Weed suppression rate (%) Echinochloa crus-galli (Echinochloa crus-galli [6])	Weed suppression rate (%) Lindemia pyxidaria (Lindernia pyxidaria [7])	Weed suppression rate (%) Scirpus juncoides (Scirpus juncoides [8])	herbicidal effect, Echinochloa crus-galli (Echinochloa crus-galli [9])	herbicidal effect, Chenopodium album (Chenopodium album [10])	herbicidal effect, Crabgrass (crabgrass [11])	herbicidal effect, Amaranthus viridis (Amaranthus viridis [12])	Weed suppression rate (%) Monochoria vaginalis (Monochoria vaginalis [13])	Weed suppression rate (%) Echinochloa crus-galli (Echinochloa crus-galli [14])	Weed suppression rate (%) Lindemia pyxidaria (Lindernia pyxidaria [15])	Weed suppression rate (%) Scirpus juncoides (Scirpus juncoides [16])
CC(C)N(C(=O)n1cnn(S(=O)(=O)C2CC2)c1=O)c1ccc(F)cc1F [Compound 11-142, 1-cyclopropylsulfonyl-N-(2,4-difluorophenyl)-N-isopropyl-5-oxo-1,2,4-triazole-4-carboxamide]	80%	90%	80%	90%	90%	100%	100%	100%	80%	80%	90%	90%	90%	100%	80%	80%
CC(C)N(C(=O)n1cnn(S(=O)(=O)C2CC2)c1=O)c1ccccc1 [Compound 11-159]	80%	90%	80%	90%	80%	90%	80%	90%	80%	80%	90%	90%	90%	90%	70%	80%
CC(C)N(C(=O)n1cnn(S(=O)(=O)C2CC2)c1=O)c1ccccc1F [Compound 11-160]	80%	90%	80%	90%	70%	100%	90%	90%	80%	80%	90%	90%	70%	100%	90%	90%
CC(C)N(C(=O)n1cnn(S(=O)(=O)C2CC2)c1=O)c1ccc(F)cc1 [Compound 11-162]	80%	90%	80%	90%	90%	100%	90%	90%	80%	80%	90%	90%	80%	90%	80%	90%
CC(C)N(C(=O)n1cnn(S(=O)(=O)C2CC2)c1=O)c1cccc(F)c1F [Compound 11-189]	100%	60%	80%	100%	90%	100%	100%	90%	100%	90%	100%	100%	100%	100%	80%	100%
CC(C)N(C(=O)n1cnn(S(=O)(=O)C2CC2)c1=O)c1c(F)cccc1F [Compound 11-191]	100%	60%	60%	100%	90%	100%	100%	100%	100%	70%	100%	70%	90%	100%	90%	90%
CC(C)N(C(=O)n1cnn(S(=O)(=O)C2CC2)c1=O)c1ccc(F)c(F)c1F [Compound 11-194]	100%	90%	80%	100%	100%	100%	100%	100%	90%	70%	90%	100%	100%	100%	100%	100%
CC(C)N(C(=O)n1cnn(S(=O)(=O)C2CC2)c1=O)c1c(F)cc(F)cc1F [Compound 11-195]	100%	30%	70%	100%	80%	100%	100%	100%	100%	90%	100%	90%	90%	100%	70%	90%
Cc1ccc(N(C(=O)n2cnn(S(=O)(=O)C3CC3)c2=O)C(C)C)c(F)c1 [Compound 11-212]	80%	90%	80%	90%	80%	100%	90%	90%	100%	60%	100%	60%	80%	90%	80%	90%
CC(C)N(C(=O)n1cnn(S(=O)(=O)C2CC2)c1=O)c1ccc(Cl)cn1 [Compound 11-233]	90%	40%	50%	90%	90%	100%	100%	90%	80%	50%	90%	80%	90%	100%	90%	90%
